Results taken from the supplement of paper PMC10307832.

Columns and labels:
Test in all cases: relative viability (nuclei count vs DMSO), 5 days (fraction); higher = more cells survive
Omipalisib + Luminespib = compound: COc1ncc(-c2ccc3nccc(-c4ccnnc4)c3c2)cc1NS(=O)(=O)c1ccc(F)cc1F [Omipalisib] + CCNC(=O)c1noc(-c2cc(C(C)C)c(O)cc2O)c1-c1ccc(CN2CCOCC2)cc1 [Luminespib] (partner 0.01 µM)
Method in brief: (§1)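 Lung cancer cell lines, seeded in 1536-well plates, were treated the following day by pin tool with a single drug or with five library-drug doses (not always all listed) in √10 steps on top of a fixed anchor-drug dose. Cells were fixed and nuclei stained in one step after 5 days, and nuclei were counted. Relative viability is the nuclei count for treated wells divided by that for vehicle wells, reported as medians of duplicate plates.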

Omipalisib + Alpelisib = compound: COc1ncc(-c2ccc3nccc(-c4ccnnc4)c3c2)cc1NS(=O)(=O)c1ccc(F)cc1F [Omipalisib] + Cc1nc(NC(=O)N2CCC[C@H]2C(N)=O)sc1-c1ccnc(C(C)(C)C(F)(F)F)c1 [Alpelisib] (partner 2 µM)
Method in brief: as §1

Omipalisib + OSI-027 = compound: COc1ncc(-c2ccc3nccc(-c4ccnnc4)c3c2)cc1NS(=O)(=O)c1ccc(F)cc1F [Omipalisib] + COc1cccc2cc(-c3nc([C@H]4CC[C@H](C(=O)O)CC4)n4ncnc(N)c34)[nH]c12 [OSI-027] (partner 0.5 µM)
Method in brief: as §1

Cell Line	relative viability (Omipalisib + Luminespib; first compound 0.0003 µM)	relative viability (Omipalisib + Luminespib; first compound 0.003 µM)	relative viability (Omipalisib + Luminespib; first compound 0.03 µM)	relative viability (Omipalisib + Alpelisib; first compound 0.0003 µM)	relative viability (Omipalisib + Alpelisib; first compound 0.003 µM)	relative viability (Omipalisib + Alpelisib; first compound 0.03 µM)	relative viability (Omipalisib + OSI-027; first compound 0.0003 µM)	relative viability (Omipalisib + OSI-027; first compound 0.003 µM)	relative viability (Omipalisib + OSI-027; first compound 0.03 µM)
NCI-H661	0.938	1.01	0.833	0.804	0.612	0.478	0.661	0.582	0.344
NCI-H727	0.35	0.281	0.395	0.594	0.445	0.5	0.596	0.439	0.393
NCI-H838	0.332	0.269	0.203	0.935	0.802	0.357	0.335	0.345	0.181
NCI-H1355	0.637	0.579	0.273	0.716	0.55	0.336	0.377	0.238	0.237
NCI-H1395	0.622	0.662	0.418	1	0.906	0.7	0.608	0.458	0.527
NCI-H1437	1.15	1.02	0.926	0.92	0.707	0.45	0.854	0.639	0.323
NCI-H1650	0.179	0.182	0.169				0.717	0.413	0.259
NCI-H1651	0.64	0.648	0.565	0.915	0.847	0.69	0.55	0.632	0.482
NCI-H1666	0.983	0.955	0.729	0.968	0.718	0.509	0.758	0.621	0.609
NCI-H1734	0.208	0.203	0.171	0.582	0.464	0.32	0.561	0.275	0.239
NCI-H1755	0.445	0.292	0.375	0.949	0.878	0.514	0.707	0.501	0.448
NCI-H1792	0.328	0.41	0.184	0.664	0.6	0.236	0.653	0.404	0.224
NCI-H1793	0.19	0.159	0.159	0.577	0.435	0.292	0.261	0.183	0.168
NCI-H1915	0.677	0.766	0.579	0.994	1.07	1.03	0.618	0.473	0.574
NCI-H1944	0.686	0.417	0.296	0.884	0.638	0.441	0.396	0.256	0.201
NCI-H1975	0.142	0.194	0.2	0.695	0.518	0.253	0.772	0.415	0.159
NCI-H1993	0.806	0.465	0.485	0.652	0.649	0.672	0.48	0.597	0.621

Cell Line	relative viability (Omipalisib + Luminespib; first compound 0.0003 µM)	relative viability (Omipalisib + Luminespib; first compound 0.003 µM)	relative viability (Omipalisib + Luminespib; first compound 0.03 µM)	relative viability (Omipalisib + Alpelisib; first compound 0.0003 µM)	relative viability (Omipalisib + Alpelisib; first compound 0.003 µM)	relative viability (Omipalisib + Alpelisib; first compound 0.03 µM)	relative viability (Omipalisib + OSI-027; first compound 0.0003 µM)	relative viability (Omipalisib + OSI-027; first compound 0.003 µM)	relative viability (Omipalisib + OSI-027; first compound 0.03 µM)
NCI-H2009	1.04	1.02	0.874	1.16	1.12	0.994	0.673	0.444	0.312
NCI-H2023	0.619	0.44	0.155	0.513	0.523	0.344	0.344	0.169	0.0988
NCI-H2085	0.386	0.352	0.291	1.06	0.787	0.36	0.776	0.349	0.315
NCI-H2087	0.166	0.14	0.158	1.19	0.886	0.751	0.532	0.309	0.251
NCI-H2126	0.825	0.567	0.338	0.696	0.583	0.474	0.71	0.488	0.411
NCI-H2170	0.543	0.178	0.189	0.704	0.643	0.484	0.656	0.475	0.485
NCI-H2228	0.131	0.0865	0.11	0.764	0.657	0.251	0.506	0.19	0.139
NCI-H2347	0.304	0.267	0.339	1.05	1.05	0.69	0.345	0.262	0.959
NCI-H2405	0.661	0.392	0.298	0.79	0.633	0.359	0.661	0.359	0.296
NCI-H3122	0.074	0.0541	0.089	0.742	0.63	0.489	0.863	0.376	0.216
PC-3 [JPC-3]	0.677	0.587	0.485	1	0.993	0.863	0.735	0.569	0.551
PC-14	0.154	0.143	0.16	0.997	0.955	0.876	0.761	0.529	0.435
RERF-LC-KJ	1.15	1.13	0.688	0.865	0.583	0.627	0.524	0.423	0.367
SK-LU-1	0.206	0.199	0.19	0.937	0.838	0.642	0.373	0.207	0.183
SK-MES-1	0.635	0.421	0.269	0.847	0.66	0.458	0.508	0.252	0.29
SW 1573	0.208	0.198	0.157	0.642	0.511	0.43	0.397	0.371	0.225
UMC-11	0.913	0.775	0.742	0.965	0.829	0.822	0.376	0.349	0.48
